In publication PMC8380238, “Structure-based virtual screening of CYP1A1 inhibitors: towards rapid tier-one assessment of potential developmental toxicants” (Archives of Toxicology, 2021):
Where a name gives a salt, the structure may show the parent alone. Read-outs that look alike come from different tables or passages of the source.

Assays:
[1] = biological target: T1, human recombinant CYP1A1 (rCYP1A1) (Homo sapiens, UniProt P04798); assay: CYP1A1 activity assay: inhibition of CEC metabolism (IC50)
T1 sequence (P04798 1-512): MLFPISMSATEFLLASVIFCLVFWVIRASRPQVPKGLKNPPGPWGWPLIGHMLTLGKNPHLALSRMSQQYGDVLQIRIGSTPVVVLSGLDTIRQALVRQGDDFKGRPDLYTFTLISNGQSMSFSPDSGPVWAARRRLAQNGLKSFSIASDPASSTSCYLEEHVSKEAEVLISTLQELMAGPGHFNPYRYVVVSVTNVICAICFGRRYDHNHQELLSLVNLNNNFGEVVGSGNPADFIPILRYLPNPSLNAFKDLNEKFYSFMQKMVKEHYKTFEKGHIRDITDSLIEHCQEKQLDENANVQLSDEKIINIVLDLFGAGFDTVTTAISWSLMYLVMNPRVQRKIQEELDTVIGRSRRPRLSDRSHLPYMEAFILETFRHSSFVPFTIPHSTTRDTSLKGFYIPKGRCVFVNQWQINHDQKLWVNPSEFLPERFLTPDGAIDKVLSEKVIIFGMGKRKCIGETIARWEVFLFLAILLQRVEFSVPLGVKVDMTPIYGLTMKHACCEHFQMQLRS

[2] = biological target: T1, human recombinant CYP1A1 (rCYP1A1)
[3] = biological target: T1, human recombinant CYP1A1 (rCYP1A1); assay: CYP1A1 activity assay repeated at six CEC concentrations (Ki, α, mode of inhibition)
[4] = test system: human CYP1A1; conditions: cited from earlier work
[5] = biological target: T1, human recombinant CYP1A1 (rCYP1A1); conditions: recombinant enzyme
[6] = test system: CYP1A1; conditions: cited from earlier work
[7] = test system: CYP1A1; conditions: cited from earlier work; remark: listed apart in the source
[8] = test system: human CYP1A1; set-up: unit not given beside the values; conditions: cited from earlier work
[9] = CYP1A1 IC50 (range of colour key, Fig. 5a)
[10] = CYP1A1 Ki (range of colour key, Fig. 5b)

Molecule: CC(C)(C#N)c1cc(Cn2cncn2)cc(C(C)(C)C#N)c1 [Anastrozole, reference compound]
- IC50 [1, 9]: 100 to 1000 µM
- IC50 ([1]; IC50): 190 µM

Molecule: CC(O)(CS(=O)(=O)c1ccc(F)cc1)C(=O)Nc1ccc(C#N)c(C(F)(F)F)c1 (centres unmarked) [Bicalutamide, reference compound]
- MOI (mode of inhibition) [2]: Mixed
- IC50 [1, 9]: 10 to 100 µM
- IC50 ([1]; IC50): 14 µM
- Ki [3, 10]: 1 to 10 µM
- Ki ([3]; Ki): 6.6 µM

Molecule: CC(C)(c1ccc(O)cc1)c1ccc(O)cc1 [Bisphenol A]
- MOI (mode of inhibition) [2]: Competitive
- IC50 [1, 9]: 1 to 10 µM
- IC50 ([1]; IC50): 2.4 µM
- α (degree to which the binding of inhibitor changes the affinity of the enzyme for substrate) [3]: 9.1
- Ki ([3]; Ki): 0.53 µM

Molecule: O=c1ccc2nc3ccc(OCc4ccccc4)cc3oc-2c1 [BzRes, resorufin benzyl ether]
- activity of human CYP1A1 on the fluorometric substrate ([4]; ref Stresser et al. [2002]): 0.457 pmol/min/pmol CYP1A1

Molecule: CCOc1ccc2cc(C#N)c(=O)oc2c1 [CEC, 3-cyano-7-ethoxycoumarin]
- activity of human CYP1A1 on the fluorometric substrate [4]: 40.2 pmol/min/pmol CYP1A1

Molecule: O=P1(N(CCCl)CCCl)NCCCO1 (centres unmarked) [Cyclophosphamide, reference compound]
- IC50 [1, 9]: ≥ 1000 µM
- IC50 [5]: ∞

Molecule: CC(=O)O[C@]1(C(C)=O)CC[C@H]2[C@@H]3C=C(Cl)C4=CC(=O)[C@@H]5C[C@@H]5[C@]4(C)[C@H]3CC[C@@]21C [Cyproterone acetate, reference compound]
- MOI (mode of inhibition) [2]: Competitive
- IC50 [1, 9]: 1 to 10 µM
- IC50 ([1]; IC50): 9.9 µM
- α (degree to which the binding of inhibitor changes the affinity of the enzyme for substrate) [3]: 7
- Ki ([3]; CYP1A1 Ki (range of colour key, Fig. 5b), range assigned by colour of the point): 1 to 10 µM
- Ki ([3]; Ki, CEC 1.56-50.0 µM): 8.8 µM

Molecule: CCCCc1oc2ccccc2c1C(=O)c1cc(I)c(OCCNCC)c(I)c1 [DEA, desethylamiodarone]
- Ki [6]: 1.5 µM
- α [6]: 5.7

Molecule: C[C@]12CC[C@H](O)CC1=CC[C@@H]1[C@@H]2CC[C@]2(C)C(=O)CC[C@@H]12 [DHEA, dehydroepiandrosterone]
- IC50 [1, 9]: 100 to 1000 µM
- IC50 ([1]; IC50): 130 µM

Molecule: CCCCOC(=O)c1ccccc1C(=O)OCCCC [Dibutyl phthalate]
- MOI (mode of inhibition) [2]: Competitive
- IC50 [1, 9]: 10 to 100 µM
- IC50 ([1]; IC50): 10 µM
- α (degree to which the binding of inhibitor changes the affinity of the enzyme for substrate) [3]: 13
- Ki [3, 10]: 1 to 10 µM
- Ki ([3]; Ki): 1.6 µM

Molecule: CCOC(=O)c1ccccc1C(=O)OCC [Diethyl phthalate]
- MOI (mode of inhibition) [2]: Competitive
- IC50 [1, 9]: 10 to 100 µM
- IC50 ([1]; IC50): 38 µM
- Ki [3, 10]: 10 to 15 µM
- Ki ([3]; Ki): 10 µM

Molecule: C[C@]12CC[C@@H]3c4ccc(O)cc4CC[C@H]3[C@@H]1[C@@H](O)[C@@H](O)[C@@H]2O [Estetrol]
- IC50 ([1]; CYP1A1 IC50 (range of colour key, Fig. 5a), 5 µM CEC, range assigned by colour of the point): 100 to 1000 µM
- IC50 ([1]; IC50, 5 µM CEC, maximum tested concentration 200 µM (ketoconazole 20 µM), ∞ = the best fitted model was the constant model): > 200 µM

Molecule: C[C@]12CC[C@@H]3c4ccc(O)cc4CC[C@H]3[C@@H]1CC[C@@H]2O [Estradiol, reference compound]
- MOI (mode of inhibition) [2]: Competitive
- IC50 [1, 9]: 10 to 100 µM
- IC50 ([1]; IC50): 43 µM
- α (degree to which the binding of inhibitor changes the affinity of the enzyme for substrate) [3]: 4.3
- Ki [3, 10]: 10 to 15 µM
- Ki ([3]; Ki): 13 µM
- CYP1A1 substrate category [7]: strong

Molecule: C[C@]12CC[C@@H]3c4ccc(O)cc4CC[C@H]3[C@@H]1C[C@@H](O)[C@@H]2O [Estriol]
- IC50 [1, 9]: ≥ 1000 µM
- IC50 [5]: ∞

Molecule: CC(=O)N1CCN(c2ccc(OCC3COC(Cn4ccnc4)(c4ccc(Cl)cc4Cl)O3)cc2)CC1 (centres unmarked) [Ketoconazole, reference compound]
- MOI (mode of inhibition) [2]: Noncompetitive
- IC50 ([1]; IC50): 0.099 µM
- α (degree to which the binding of inhibitor changes the affinity of the enzyme for substrate) [3]: 0.68
- Ki ([3]; Ki): 0.11 µM

Molecule: COc1ccc2[nH]cc(CCNC(C)=O)c2c1 [Melatonin]
- CYP1A1 substrate category [7]: strong

Molecule: COc1nn(CSP(=S)(OC)OC)c(=O)s1 [Methidathion]
- AC50 [8]: 0.6887

Molecule: COP(=S)(OC)Oc1ccc([N+](=O)[O-])cc1 [Methyl parathion]
- AC50 [8]: 0.8544

Molecule: CNc1cnn(-c2cccc(C(F)(F)F)c2)c(=O)c1Cl [Norflurazon]
- AC50 [8]: 0.8239

Molecule: CCOP(=S)(OCC)Oc1ccc([N+](=O)[O-])cc1 [Parathion]
- AC50 [8]: 0.5508

Molecule: O=[N+]([O-])c1c(Cl)c(Cl)c(Cl)c(Cl)c1Cl [Pentachloronitrobenzene]
- AC50 [8]: -0.9415

Molecule: CCOP(=S)(OCC)SCSCC [Phorate]
- AC50 [8]: 0.6456

Molecule: CCOP(=S)(OCC)SCn1c(=O)oc2cc(Cl)ccc21 [Phosalone]
- AC50 [8]: -0.311

Molecule: COP(=S)(OC)SCN1C(=O)c2ccccc2C1=O [Phosmet]
- AC50 [8]: 0.5339

Molecule: CCCCOCCOCCOCc1cc2c(cc1CCC)OCO2 [Piperonyl butoxide]
- AC50 [8]: 0.8015

Molecule: CCCN(CCOc1c(Cl)cc(Cl)cc1Cl)C(=O)n1ccnc1 [Prochloraz]
- AC50 [8]: -0.384

Molecule: CC(=O)[C@H]1CC[C@H]2[C@@H]3CCC4=CC(=O)CC[C@]4(C)[C@H]3CC[C@]12C [Progesterone, reference compound]
- MOI (mode of inhibition) [2]: Competitive
- IC50 [1, 9]: 10 to 100 µM
- IC50 ([1]; IC50): 41 µM
- α (degree to which the binding of inhibitor changes the affinity of the enzyme for substrate) [3]: 4.3
- Ki [3, 10]: 15 to 20 µM
- Ki ([3]; Ki): 20 µM
- CYP1A1 substrate category [7]: weak

Molecule: CSc1nc(NC(C)C)nc(NC(C)C)n1 [Prometryn]
- AC50 [8]: 0.888

Molecule: CCNP(=S)(OC)O/C(C)=C/C(=O)OC(C)C (centres unmarked) [Propetamphos]
- AC50 [8]: 0.3484

Molecule: CCCC1COC(Cn2cncn2)(c2ccc(Cl)cc2Cl)O1 (centres unmarked) [Propiconazole]
- AC50 [8]: 0.9547

Molecule: CCCOC(=O)c1ccc(O)cc1 [Propyl paraben]
- MOI (mode of inhibition) [2]: Competitive
- IC50 [1, 9]: 10 to 100 µM
- IC50 ([1]; IC50): 39 µM
- α (degree to which the binding of inhibitor changes the affinity of the enzyme for substrate) [3]: 6.2
- Ki [3, 10]: 15 to 20 µM
- Ki ([3]; Ki): 17 µM

Molecule: C#CC(C)(C)NC(=O)c1cc(Cl)cc(Cl)c1 [Propyzamide]
- AC50 [8]: 0.363

Molecule: COC(=O)N(OC)c1ccccc1COc1ccn(-c2ccc(Cl)cc2)n1 [Pyraclostrobin]
- AC50 [8]: 0.2248

Molecule: O=C(c1ccc(OCCN2CCCCC2)cc1)c1c(-c2ccc(O)cc2)sc2cc(O)ccc12 [Raloxifene hydrochloride]
- AC50 [8]: 0.811

Molecule: COC(=O)[C@H]1[C@H]2C[C@@H]3c4[nH]c5cc(OC)ccc5c4CCN3C[C@H]2C[C@@H](OC(=O)c2cc(OC)c(OC)c(OC)c2)[C@@H]1OC [Reserpine]
- AC50 [8]: -0.938

Molecule: C=C(C)[C@H]1Cc2c(ccc3c2O[C@@H]2COc4cc(OC)c(OC)cc4[C@@H]2C3=O)O1 [Rotenone]
- AC50 [8]: 0.8835

Molecule: CCNc1nc(Cl)nc(NCC)n1 [Simazine]
- AC50 [8]: 0.05448

Molecule: C[C@]12CC[C@H]3[C@@H](CCC4=CC(=O)CC[C@@]43C)[C@@H]1CC[C@@H]2O [Testosterone]
- CYP1A1 substrate category [7]: weak

Molecule: c1ccc2[nH]c(-c3cscn3)nc2c1 [Thiabendazole]
- AC50 [8]: 0.674

Molecule: CS/C(C)=N\OC(=O)N(C)SN(C)C(=O)O/N=C(\C)SC [Thiodicarb]
- AC50 [8]: 0.9955

Molecule: CC(C)(C)C(=O)C(Oc1ccc(Cl)cc1)n1cncn1 (centres unmarked) [Triadimefon]
- AC50 [8]: 0.3192

Molecule: CCCOC/C(=N\c1ccc(Cl)cc1C(F)(F)F)n1ccnc1 [Triflumizole]
- AC50 [8]: 0.6164

Molecule: CC1(C)CCC(=Cc2ccc(Cl)cc2)C1(O)Cn1cncn1 (centres unmarked) [Triticonazole]
- AC50 [8]: -0.101

Molecule: c1ccc(C(O[C@@H]2CCCN(CCc3ccc4c(c3)OCO4)C2)c2ccccc2)cc1 [Zamifenacin]
- AC50 ([8]; NVS_ADME_hCYP1A1, values appear to be log10, ref ToxCast): 0.759

Molecule: C[C@H]1CCCC(=O)CCC/C=C/c2cc(O)cc(O)c2C(=O)O1 [Zearalenone]
- MOI (mode of inhibition) [2]: Mixed
- IC50 ([1]; IC50): 0.7 µM
- α (degree to which the binding of inhibitor changes the affinity of the enzyme for substrate) [3]: 3.5
- Ki ([3]; Ki): 0.66 µM

Molecule: CC1=C(/C=C/C(C)=C/C=C/C(C)=C/C(=O)O)C(C)(C)CCC1 [all-trans-Retinoic acid]
- AC50 ([8]; ToxCast NVS_ADME_hCYP1A1, NA = no AC50, ref ToxCast): 0.1194

Molecule: C=CC(=C)CCC=C(C)C [β-Myrcene]
- MOI (mode of inhibition) [2]: Mixed
- IC50 [1, 9]: 10 to 100 µM
- IC50 ([1]; IC50): 52 µM
- α (degree to which the binding of inhibitor changes the affinity of the enzyme for substrate) [3]: 3.5
- Ki [3, 10]: 10 to 15 µM
- Ki ([3]; Ki): 11 µM

Molecule: Chlorpyrifos oxon
- AC50 [8]: 0.9288
